Here are results for 22 compounds from PubChem BioAssay (NCI).

SMILES strings stand for the structures.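 Five concentrations, 48 hours, 96-well plates. Abbreviation: GI50, concentration required for 50% inhibition of growth. TGI denotes the concentration required for complete inhibition of growth.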

Assay in all cases: NCI anticancer screen, dose series, 48 h
Test [1] deals with BT-549 breast.
The test system of test [2] is DU-145 prostate.
Test [3] has as its system PC-3 prostate.

Take `O=C1C2=C(C(=O)c3c(O)ccc(O)c31)N(c1ccc(N3CCOCC3)nc1)Cc1ccccc1O2`: the GI50 in test [1] was 0.249 µM; in test [2], 0.326 µM; in test [3], 0.387 µM. For the same compound, the TGI in test [1] stood at 0.845 µM; in test [2], 1.03 µM; in test [3], 1.89 µM.
Take `CCCCCCN(CCCCCC)CCCNc1nccc2ccccc12`: the GI50 in test [1] was 1.79 µM; in test [2], 3.42 µM; in test [3] it was 2 µM. Besides, the TGI was found to be 3.47 µM in test [1], 11.9 µM in test [2] and 5.54 µM in test [3].
For `CCCc1cc(=O)oc2c(C(=O)CC(C)C)c(O)c(CC=C(C)C)c(O)c12`, the GI50 in test [1] was 7.85 µM; in test [2], 14.4 µM; in test [3], 6.22 µM. Moreover, the TGI is 42.4 µM in test [1], > 50 µM in test [2] and 34.3 µM in test [3].
As to `Fc1ccc(-c2nc(-c3nc4ccc(Cl)cc4[nH]3)cc3c2[nH]c2ccccc23)cc1`, the GI50 in test [1] is 4.62 µM; in test [2] it was 3.41 µM; in test [3], 2.09 µM. The figures for the TGI in test [1], in test [2] and in test [3] were 18.7 µM, 12 µM and 6.95 µM, respectively.
As to `COc1cc(CNC(=O)/C=C/C=C/c2ccc3c(c2)OCO3)ccc1OCc1cn(-c2ccc(Cl)c(Cl)c2)nn1`, the GI50 in test [1] is 1.83 µM; in test [2], 1.45 µM; in test [3], 1.48 µM. The TGI in test [1] worked out at 4.46 µM; in test [2], 3.16 µM; in test [3], 3.47 µM.
As for `CCCNc1nc(N(C)O)nc(N(C)O)n1`, the results for the GI50 in test [1], in test [2] and in test [3] were 3.34 µM, 1.46 µM and 6.66 µM, respectively. Further, the TGI in test [1] is > 29.9 µM; in test [2] it was > 30.1 µM; in test [3], > 100 µM.
Turning to `COc1ccc(CN2c3ccccc3Sc3ccccc32)cc1F`, the figures for the GI50 in test [1], in test [2] and in test [3] were 1.34 µM, 0.477 µM and 0.448 µM, respectively. The TGI is > 23.4 µM in test [1], > 100 µM in test [2] and > 100 µM in test [3].
With `CC1C2Cc3ccc(O)cc3C1(C)CCN2C` (stereo not given), the TGI in test [2] and in test [3] was > 100 µM throughout.
Regarding `CCN1CCC[C@H]1c1cc(O)c2c(c1OC)C[C@H]1C[C@H]3[C@H](N)C(=O)C(C(N)=O)=C(O)[C@@]3(O)C(=O)C1=C2O`, the GI50 in test [1] is 0.0719 µM; in test [2], 0.0664 µM; in test [3] it was 0.151 µM. The TGI was determined as 1.28 µM in test [1], 2.16 µM in test [2] and 8.76 µM in test [3].
For `Nc1ccc2c(c1)C(=O)c1ccc(F)cc1-2`, the TGI in test [1], in test [2] and in test [3] was > 100 µM throughout.
As for `COc1ccc(Nc2c3ccccc3nc3c2c2ccccc2n3C)cc1`, the GI50 in test [1] was 11 µM; in test [2], 15.6 µM; in test [3], 11.1 µM. In addition, the TGI in test [1] was 43.4 µM; in test [2] it was > 100 µM; in test [3] it was 54.2 µM.
`CN(C)CC(C(=O)c1ccccc1)c1ccccc1` (stereo not given): the GI50 in test [1] was 1.87 µM; in test [2], 1.34 µM; in test [3], 4.12 µM. The TGI in test [1] was 4.39 µM; in test [2], 3.15 µM; in test [3], 16.9 µM.
On to `Cn1cc(-c2csc(-c3c[nH]c4ncccc34)n2)c2cc(Br)cnc21`, for which the GI50 in test [1] is 20.5 µM; in test [2], 3.51 µM; in test [3], 4.35 µM. Further, the TGI in test [1], in test [2] and in test [3] was > 100 µM each time.
In the case of `COC(=O)[C@]12CC[C@@H](C)[C@H](C)[C@@H]1C1=CC[C@@H]3[C@@]4(C)C[C@@H](OC(=O)c5ccco5)[C@H](O)[C@@](C)(CO)[C@@H]4[C@H](O)C[C@@]3(C)[C@]1(C)CC2`, the GI50 in test [1] was 2.41 µM; in test [2] it was 2.78 µM; in test [3] it was 2.6 µM. Further, the figures for the TGI in test [1], in test [2] and in test [3] were 5.21 µM, 8.11 µM and 6.73 µM, respectively.
As for `COc1cccc(Nc2nc(NNC(=O)Cc3ccccc3)nc(NNC(=O)c3ccncc3)n2)c1`, in test [2], the GI50 is > 100 µM. Also, the TGI in test [2] and in test [3] was > 100 µM throughout.
As for `Cc1ccc(/C=C(\C#N)n2nnc3cc(Cl)c(Cl)cc32)cc1`, in test [1], the GI50 was 1.81 µM and the TGI amounted to 4.59 µM. Besides, in test [2], the GI50 was 3.27 µM and the TGI was > 100 µM.
As for `Cc1cccc(CN(C)c2ccc(CO)c(Cl)c2)c1`, the GI50 was 15.8 µM in test [1], 30.8 µM in test [2] and 22.2 µM in test [3]. For the same compound, the TGI in test [1] was 42.9 µM; in test [2] it was > 100 µM; in test [3] it was 96.3 µM.
On to `N#Cc1ccc(Oc2nccc(-c3c(-c4ccc(F)cc4)ncn3C3CCNCC3)n2)cc1`, for which the GI50 is 24.9 µM in test [1], > 25 µM in test [2] and 13.9 µM in test [3]. For the same compound, the TGI in test [1], in test [2] and in test [3] was > 25 µM throughout.
Turning to `C[N+](C)(C)CCOP(=O)(O)OP(=O)([O-])OCC1CCC(n2ccc(N)nc2=O)O1` (stereo not given), the TGI in test [1], in test [2] and in test [3] was > 100 µM throughout.
With `O=C(CCCn1c2c(sc3ncccc32)c(=O)n2nnc(-c3ccccc3)c12)NCCc1cnc[nH]1`, the GI50 in test [2] is 2.77 µM; in test [3], 10.9 µM. Moreover, the TGI in test [2] was 19.7 µM; in test [3] it was > 100 µM.
On to `O=C(Oc1cccnc1)c1ccccc1Nc1ccnc(C(F)(F)F)c1`, for which the GI50 in test [1] is 0.104 µM; in test [2], 0.273 µM; in test [3], 0.449 µM. For the same compound, the TGI in test [1] was 2.18 µM; in test [2], 3.17 µM; in test [3], > 100 µM.
Consider `COc1cc(/C=C/C(=O)C(=Cc2ccc(F)c(F)c2)C(=O)/C=C/c2ccc(O)c(OC)c2)ccc1O`, for which the GI50 in test [1] was 2.68 µM; in test [2], 2.1 µM; in test [3], 2.49 µM. The values for the TGI in test [1], in test [2] and in test [3] were 7.13 µM, 5.27 µM and 8.31 µM, respectively.
